Consider two compounds from patent publication US20250368639A1, “SOLID FORMS OF A COMPOUND FOR TREATING OR PREVENTING HYPERURICEMIA OR GOUT” (ATOM THERAPEUTICS CO., LTD, priority 2022, published 2025).

≈ marks a conversion by molar mass, not a printed value.

What all share (format): physicochemical
Data set [1] is described as follows: Suspensions for animal formulation in 0.5% CMC-Na (XRPD). Particulars: about 30 mg in 30 ml, sonication. As to the method:
About 30 mg of Form 1, Form 2, and Form 5D were each added into a respective 40 ml glass bottle and mixed with 30 ml of 0.5% CMC-Na solution. The solids were dispersed uniformly in the solution with the aid of sonication. After that, the solids were isolated by centrifugation, dried at room temperature, and the dry solid analyzed with XRPD.

Data set [2] is described as follows: Solubility in water, buffers and bio-relevant media (37° C., 24 h shaking, HPLC). Particulars: 37° C., 24 h. On the procedure: The solubility of Form 1, Form 2, Form 5D, Form 6, Form 8, and Form 11 was analyzed in water, 0.1NaqueousHCl, pH4.5 acetate buffer solution, pH6.8 phosphate buffer solution, simulated gastric fluid (SGF), Fasted State Simulated Intestinal Fluid (FaSSIF), and Fed State Simulated Intestinal Fluid (FeSSIF).
About 5 mg or 10 mg of sample was weighed out into each vial and mixed with about 5 ml of medium to form a solution. The target concentration for the potassium salt in water was 2 mg/ml; and the target concentration for all other forms were 1 mg/mL. All samples were kept shaking at 200 rounds per minute (rpm) under 37° C. for 24 hours. The pH value of these samples were determined after shaking for 24 hours. Subsequently, they were centrifuged at the speed of 12000 rpm for 2 mins. The supernatant was diluted with methanol as necessary, and the concentrations were determined by HPLC. When the solubility of potassium salt was tested in water, the supernatant was diluted 100 times, while no other samples were diluted. The HPLC analysis utilizes Agilent Eclipse XDB-C8 4.6*150 mm, 5 μm column at 40° C., a mobile phase of 0.1% TFA: ACN=70:30, an injection volume of 10 μl, a flow rate of 1.0 ml/min, a diluent of methanol, and a detection wavelength of 234 nm.

Data set [3] can be described thus: Visual solubility of Form 1 in common solvents. Particulars: thermodynamic from solid. As to the method:
Solubility of Form 1 was tested visually. About 5 mg of Form I was accurately weighed into a glass vial of 5 ml. Small amounts of solvent was added gradually into the vial until the compound was dissolved or when the total amount added reached 5 ml. The cumulative volume of the solvent was recorded.

The nature of the next data set: Heating study of Form 1. Particulars: 110° C. about 10 minutes / 100° C. 20 minutes. As to the method:
About 150 mg of Form 1 was heated to 110° C. and maintained for about 10 minutes. The sample color changed from light yellow to dark yellow. The darker sample was evaluated with XRPD. The sample color changed back to light yellow at the conclusion of the XRPD evaluation, which was similar to the color before the heating treatment. […] Another sample of Form 1 was heated in an oven at 100° C. for 20 minutes and subsequently analyzed for the moisture content using KF method. The moisture content of heated Form 1 was 6.8%. […] The product is unstable and will rapidly absorb water.

Data set [4] can be described thus: Long-term stability of Compound I Form 2 (XRPD). As to the method:
The stability of Compound I Form 2 was analyzed by the following two experiments.
Experiment A: The following is an X-ray Powder Diffraction Analytical method used to obtain the data shown in FIG. 43 and FIG. 44, and which complies with ChP<0451>/USP/NF<941>/EP10.6 2.9.33. Standard XRPD patterns were collected using a Bruker D8 Advance diffractometer or equivalent instrument.
Parameters for collecting the XRPD shown in FIG. 43 and FIG. 44 is as follows:
The XRPD patterns shown in FIG. 45 and FIG. 46 were collected using a Bruker D2 Phaser X-ray diffractometer. Detector: PSD LynxEye; Sample holder: Zero background sample holder or equivalent; Software: DIFFRAC. Measurement Center, Version V6.5.0 or equivalent; Diffractometer Settings: Diffractometer type: 02 phaser; Goniometer Type: Theta/Theta; Sample Stage: Standard rotating stage; Goniometer Diameter: 282.2 mm; Divergence slit: 1.0 mm; Primary seller slit: 2.5°; Secondary seller slit: 2.5°; Airscatter screen module: 1.0 mm; Tube Element: Cu; Tube parameters: voltage 30 kV; current 10 mA; Scan Parameters: SSD160: Locked coupled; SSD160-2: coupled Two Theta/Theta Scan Type: SSD160: Locked coupled; SSD160-2: coupled Two Theta/Theta; Continuous PSD fast Scan Mode: Continuous PSD fast scan; Rotation Speed: 20 rpm; Start: 3° ˜40° (2 0); Scan Step: 0.02° (2 0); Scan Speed: 0.2s/step; Detector opening: 4.5°; Sample Analysis; Test the sample with the Diffractometer Settings and Scan Parameters. The powder X-ray diffraction pattern of the sample was recorded and calculations were performed according to Bruker D2 Phaser X-ray Diffractometer User Manual V6-Identification of Crystal Form by X-Ray Powder Diffraction (XRPD)-Bruker D2 Phaser.

A word on the Solubility: it is the dissolved amount per volume that the medium holds. For the compound `CCc1nc2ccccn2c1C(=O)c1cc(Br)c(O)c(C#N)c1` [Form 1, 3-bromo-5-[(2-ethylimidazo[1,2-a]pyridin-3-yl)carbonyl]-2-hydroxybenzonitrile], in data set [1], the “Crystal form after dispersion in 0.5% CMC-Na solution (XRPD)” value is reported as “did not change”. In addition, the Solubility in data set [2] (0.1N HCl) was determined as 5.0 µg/mL (≈ 13.5 µM); in data set [2] (FaSSIF), 16.6 µg/mL (≈ 44.8 µM); in data set [2] (FeSSIF), 1.9 µg/mL (≈ 5.13 µM); in data set [2] (SGF) it was 2.9 µg/mL (≈ 7.83 µM); in data set [2] (Water), 9.4 µg/mL (≈ 25.4 µM); in data set [2] (pH 4.5 acetate buffer), 1.0 µg/mL (≈ 2.7 µM). For the same compound, the Solubility in data set [2] (pH 6.8 phosphate buffer) was 19.8 µg/mL (≈ 53.5 µM); in data set [3] (acetone, organic solvent or mixture), less than 1000 µg/mL; in data set [3] (acetone:water 3:1, organic solvent or mixture, Acetone:water = 3:1), less than 1000 µg/mL; in data set [3] (acetonitrile (ACN), organic solvent or mixture) it was less than 1000 µg/mL; in data set [3] (dichloromethane (DCM), organic solvent or mixture), less than 1000 µg/mL; in data set [3] (dimethylformamide (DMF), organic solvent or mixture), more than 25000 µg/mL. For the same compound, the Solubility in data set [3] (dimethylsulfoxide (DMSO), organic solvent or mixture) is more than 25000 µg/mL; in data set [3] (ethanol, organic solvent or mixture, Ethanol (EtOH)) it was less than 1000 µg/mL; in data set [3] (ethyl acetate, organic solvent or mixture, Ethyl acetate (EtAc)) it was less than 1000 µg/mL; in data set [3] (heptane, organic solvent or mixture), less than 1000 µg/mL; in data set [3] (isopropyl alcohol, organic solvent or mixture) it was less than 1000 µg/mL; in data set [3] (methanol, organic solvent or mixture, Methanol (MeOH)) it was less than 1000 µg/mL. The Solubility in data set [3] (methanol:water 3:1, organic solvent or mixture, Methanol:water = 3:1) was less than 1000 µg/mL; in data set [3] (methyl ethyl ketone (MEK), organic solvent or mixture), less than 1000 µg/mL; in data set [3] (tetrahydrofuran (THF), organic solvent or mixture) it was approximately 3000 µg/mL (≈ 8100 µM); in data set [3] (toluene, organic solvent or mixture), less than 1000 µg/mL; in data set [3] (water, Water (H2O)), less than 1000 µg/mL. The “Solubility in the buffer solution and bio-relevant medium” value in data set [2] is reported as “low solubilities”. In the data set “Heating study of Form 1”, the Behaviour upon heating entry is “may lose water upon heating”.

Take `CCc1nc2ccccn2c1C(=O)c1cc(Br)c(O)c(C#N)c1` [Form 2, 3-bromo-5-[(2-ethylimidazo[1,2-a]pyridin-3-yl)carbonyl]-2-hydroxybenzonitrile]: the “Crystal form after dispersion in 0.5% CMC-Na solution (XRPD)” value in data set [1] is “transformed into Form 1”. Besides, the Solubility is 3.8 µg/mL (≈ 10.3 µM) in data set [2] (0.1N HCl); 41.8 µg/mL (≈ 113 µM) in data set [2] (FaSSIF); 2.8 µg/mL (≈ 7.56 µM) in data set [2] (FeSSIF); 3.0 µg/mL (≈ 8.1 µM) in data set [2] (SGF); 20.0 µg/mL (≈ 54 µM) in data set [2] (Water); less than 1 µg/mL in data set [2] (pH 4.5 acetate buffer). For the same compound, in data set [2] (pH 6.8 phosphate buffer), the Solubility is 24.1 µg/mL (≈ 65.1 µM). In data set [2], the “Highest concentration among the media” value is “around 40 μg/ml”. In data set [2], the “Solubility in the buffer solution and bio-relevant medium” value is “low solubilities”. Besides, the “Period over which the form remains stable (XRPD)” value in data set [4] (Experiment A, 25° C.±2° C./60% RH±5% RH) is “at least 12 months”; in data set [4] (Experiment A, 40° C.±2° C./75% RH±5% RH) it was “at least 6 months”; in data set [4] (Experiment B, 25° C.±2° C./60% RH±5% RH), “at least 48 months”; in data set [4] (Experiment B, 40° C.±2° C./75% RH±5% RH), “at least 6 months”.
